# Structures can show the parent of a compound that is named as a salt. Where two headings read alike, the source gives them in different places.
# Assays:
# [1] = Screening: visual/manual check whether a coalesced film formed; assay type: physicochemical
# [2] = 25° C.; cited from earlier work
# [3] = unitless; cited from earlier work
# [4] = ethylcellulose dispersion plus additive, intact on and after removal from substrate
Compound,Film? Did the sample form a coalesced film? (yes or no) [1],W. Sol. solubility in water [2] [mg/mL],"Film? Did the sample form a coalesced film? (yes or no) [1, 4]",logP logarithm of the water-octanol partition coefficient [3]
"OCCOc1ccccc1 [2-phenoxy ethanol, 2-Phenoxyethanol]",yes,30,,
CC(C)(C)CC(C)(C)c1ccc(OCCOCC[N+](C)(C)Cc2ccccc2)cc1 [benzethonium chloride],no,,,
OCc1ccccc1 [benzyl alcohol],,42.9,yes,
O=C(OCc1ccccc1)c1ccccc1 [benzyl benzoate],,,yes,3.81
CC[N+](CC)(CC(=O)Nc1c(C)cccc1C)Cc1ccccc1 [denatonium benzoate],,,no,−0.088
CCCCOC(=O)CCCCCCCCC(=O)OCCCC [dibutyl sebacate],,,yes,5.958
OCCNCCO [diethanolamine],,,no,−1.761
CCOC(=O)c1ccccc1C(=O)OCC [diethyl phthalate],,,yes,
COC(=O)c1ccccc1C(=O)OC [dimethyl phthalate],yes,,,
OCC(O)CO [glycerol],,500,no,−1.85
CCCCC/C=C\C/C=C\CCCCCCCC(=O)O [linoleic acid],,,yes,
OC[C@@H](O)[C@@H](O[C@H]1O[C@H](CO)[C@@H](O)[C@H](O)[C@H]1O)[C@H](O)[C@@H](O)CO [maltitol],,,no,
OC[C@@H](O)[C@@H](O)[C@H](O)[C@H](O)CO [mannitol],,182,no,−3.62
CCCCCCCC/C=C\CCCCCCCC(=O)O [oleic acid],,,yes,
CCCCCCCC/C=C\CCCCCCCCO [oleyl alcohol],,,yes,7.562
OCCc1ccccc1 [phenylethyl alcohol],,20,yes,
CCCOC(=O)c1cc(O)c(O)c(O)c1 [propyl gallate],,,yes,1.779
CC(O)CO (stereo not drawn) [propylene glycol],,,yes,−1.008
OC[C@@H](O)[C@@H](O)[C@H](O)[C@@H](O)CO [sorbitol],,182,no,−3.262
CCCCCCCCCCCCCCCCCC(=O)O [stearic acid],,,yes,
O=C(O)CCC(=O)O [succinic acid],,,no,−0.933
CC(=O)OCC(COC(C)=O)OC(C)=O [triacetin],,1.16,yes,0.216
CCCCOC(=O)CC(O)(CC(=O)OCCCC)C(=O)OCCCC [tributyl citrate],,,yes,4.324
CCOC(=O)CC(O)(CC(=O)OCC)C(=O)OCC [triethyl citrate],,,yes,1.267
OC[C@@H](O)[C@H](O)[C@@H](O)CO [xylitol],,1500,no,−2.65

# Reference: patent US20170209385A1, “ETHYLCELLULOSE DISPERSION AND FILM” (Dow Global Technologies LLC, priority 2014, published 2017)
